Measured values as given in patent US20260376293A1, “METHODS FOR STUDYING GPR158 PHARMACOLOGY AND IDENTIFICATION OF ITS LIGANDS” (UNIVERSITY OF FLORIDA RESEARCH FOUNDATION, INCORPORATED, priority 2022, published 2026).

Target: T1, GPR158 (Homo sapiens, UniProt Q5T848)
T1 sequence (Q5T848 24-1215): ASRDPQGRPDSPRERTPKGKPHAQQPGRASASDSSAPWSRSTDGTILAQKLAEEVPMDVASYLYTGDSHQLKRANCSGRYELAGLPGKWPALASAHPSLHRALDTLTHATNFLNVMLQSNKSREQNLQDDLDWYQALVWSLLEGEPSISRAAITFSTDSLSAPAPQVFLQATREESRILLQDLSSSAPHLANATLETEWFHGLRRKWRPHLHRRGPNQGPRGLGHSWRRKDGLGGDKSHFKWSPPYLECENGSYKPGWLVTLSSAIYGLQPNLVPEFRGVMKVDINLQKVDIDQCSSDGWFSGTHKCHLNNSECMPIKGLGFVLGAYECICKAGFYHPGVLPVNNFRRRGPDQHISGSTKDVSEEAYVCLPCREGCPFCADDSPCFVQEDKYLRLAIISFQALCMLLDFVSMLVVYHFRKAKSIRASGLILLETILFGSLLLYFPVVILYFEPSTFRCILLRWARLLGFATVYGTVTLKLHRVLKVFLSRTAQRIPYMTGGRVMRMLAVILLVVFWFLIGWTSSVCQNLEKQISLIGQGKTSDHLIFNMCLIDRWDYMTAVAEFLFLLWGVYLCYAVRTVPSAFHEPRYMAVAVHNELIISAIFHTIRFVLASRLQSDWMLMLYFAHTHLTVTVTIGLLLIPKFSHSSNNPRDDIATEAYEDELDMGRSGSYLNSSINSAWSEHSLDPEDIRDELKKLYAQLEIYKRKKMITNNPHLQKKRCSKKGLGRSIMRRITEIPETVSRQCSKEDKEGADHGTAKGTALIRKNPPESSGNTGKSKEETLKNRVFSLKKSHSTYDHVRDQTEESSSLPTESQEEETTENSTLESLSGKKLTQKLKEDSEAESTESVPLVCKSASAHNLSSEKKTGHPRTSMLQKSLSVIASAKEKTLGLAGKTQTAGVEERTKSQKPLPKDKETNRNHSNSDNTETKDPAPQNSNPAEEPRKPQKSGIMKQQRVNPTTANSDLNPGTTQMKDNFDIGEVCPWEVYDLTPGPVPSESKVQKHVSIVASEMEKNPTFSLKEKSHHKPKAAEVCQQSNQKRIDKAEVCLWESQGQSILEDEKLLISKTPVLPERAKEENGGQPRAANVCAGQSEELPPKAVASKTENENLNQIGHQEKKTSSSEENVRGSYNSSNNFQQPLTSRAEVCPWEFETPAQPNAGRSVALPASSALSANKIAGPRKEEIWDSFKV
Test: Radioligand competition binding assay vs ^3H-glycine
Design: expressed in transfected cells; host or cells: HEK293FT
Details: for IC50: membranes from HEK293 cells expressing GPR158, 4 experiments, mean±s.e.m., read-out: IC50 (displacement of ^3H-glycine)
Method: FIG. 8. Radioligand competition binding assay comparing binding of glycine and taurine to GPR158 Membranes from HEK293 cells expressing GPR158 were first incubated with ^3H-Glycine setting binding to 100% and then exposed to increasing concentrations of cold glycine (open circles) or cold taurine (circles with angled-line fill). Data shown are from 4 independent experiments, mean±s.e.m.
Next, the inventors performed radioligand binding assays examining binding of [^3H]-labeled glycine to HEK293 cells expressing GPR158 (FIG. 7A). […] The inventors have then isolated cellular membranes and conducted classical radioligand titration experiments (FIG. 9D). The inventors detected saturable [^3H]-glycine binding to membranes containing GPR158 is substantial excess over linear non-specific binding to membranes devoid of GPR158 (FIG. 9E). Scatchard analysis (FIG. 9F) estimated Kd of GPR158 for glycine to be ~3 μM. The inventors further performed binding competition experiments directly comparing the ability of glycine and taurine to displace [^3H]-labeled glycine bound to GPR158 (FIG. 8).
The functional data shown represent the average±SEM of 3-9 individual experiments each performed in triplicate or indicated in each figure and expressed as means±standard error means (s.e.m). For cAMP assays, cells transfected with empty vector were used as control and one-way ANOVA test was performed. For the GAP assay, cells with the same transfection conditions were compared on their treatment and two-way ANOVA test was performed. The non-linear regression curve was used to fit on the dose response curve giving the IC50 value. For the flow cytometry and radioligand binding assays cells transfected with empty vector were used as control and two-way ANOVA test was performed. For the radioligand competition assay, dissociation-One phase exponential decay was used to fit on data and give the Ki value. For the ITC dose response curve, the non-linear regression curve was used to fit on the curve. […] For the electrophysiology experiments changes was assessed in nonparametric t-test; Wilcoxon test. […]

| SMILES | IC50 | affinity of taurine relative to glycine (competition binding IC50 comparison) |
| --- | --- | --- |
| NCC(=O)O [glycine] | ~3 µM | – |
| NCCS(=O)(=O)O [taurine, 2-aminoethanesulfonic acid] | ~6 µM | two fold lower affinity |
